Common to all, as to type: in vivo, C57BL/6 female mice
Data set [1] deals with anemia symptoms induced by the T241-VEGF tumor animal model. In words: Blood analysis of anemia symptoms (RBC, HGB, HCT, PLT) in T241-VEGF tumor-bearing mice. As to the method:
(§1) We feed C57BL/6 female mice (SPF grade, 6-8 weeks old, manufactured by Shanghai Silaike Experimental Animal Co., Ltd.) for 2-3 days. The day before subcutaneous inoculation, body hair in back and neck was shaved with a shaving device for the preparation of subcutaneous inoculation of tumor cells. The tumor cells T241-VEGF were collected and washed twice with PBS. After resuspended with PBS and counted, the cells were diluted to 1×10^7 cells/ml with PBS and placed on ice ready for inoculation. Mice were anesthetized with 7% chloral hydrate, 0.1 ml/each, intraperitoneal injection. After the mice were completely anesthetized, the mice were subcutaneously inoculated with tumor cells T241-VEGF, 1×10^6/each, with 1 ml medical disposable syringes in the back and neck. Inoculated mice were randomly allocated (8 in each group), weighed, grouped and administered for treatment. In this experiment, curcumin (manufactured by Sigma, cat. no. C1386-10G) was dissolved to 1 mol/L with DMSO and diluted to 2.5 mM, 5 mM and 10 mM with 20% Tween-80 (mixed with PBS) before administration. Detailed information and administration plan is as follows: Control: 20% Tween-80, 0.1 ml/each; The low-dose of curcumin group (Curcumin-2.5 mM): 2.5 mM curcumin, 0.1 ml/each, continuous administration for 14 days; The medium-dose of curcumin group (Curcumin-5 mM): 5 mM curcumin, 0.1 ml/each, continuous administration for 14 days; The high-dose of curcumin group (Curcumin-10 mM): 10 mM Curcumin, 0.1 ml/each, continuous administration for 14 days; Positive control group (PC: anti-VEGF humanized monoclonal antibody, produced by Jiangsu Simcere Pharmaceutical Co., Ltd.): 2 mg/ml, 0.1 ml/each, twice a week, administration for 4 times. Mice were weighed up every other day. Measuring the tumor volume with vernier caliper every other day after tumor grew in the body.
Handled the animals in each group the day after administration, weighed up, then collected blood (stored in 1.5 ml of EP tubes with 20 ul of 0.5M EDTA) after enucleation of the eyeballs and performed blood analysis. Blood samples were taken to evaluate the effect of curcumin on tumor associated syndrome—red blood cell (RBC), hemoglobin (HGB), hematocrit (HCT) and platelet count (PLT) in mice.

For data set [2], the system named is liver enlargement and splenomegaly caused by T241-VEGF tumor. The data set can be described thus: Liver and spleen coefficients of T241-VEGF tumor-bearing mice. Particulars: vs tumor control group, p<0.05. As to the method:
as §1, with “body. […]” for “body.”

The test system of the next data set is T241-VEGF tumors. The data set can be described thus: Antitumor animal model, subcutaneous T241-VEGF tumor: tumor volume and tumor weight. As to conditions: for final tumor volume compared with the control group / tumor weight compared with the control group: 0.1 ml/each, 14 days; for tumor weight compared with the control group: FIG. 1-B.
Text: as §1, with “At present, conventional antitumor drugs are accompanied with toxic side effects while taking effect. In this experiment, we evaluated the antitumor effect of curcumin, and examined the toxicity of the drug by observing changes in animals' body weights after treatment. Given that the chemotherapy drug treatment and course of chemotherapy are closely related to the incident rates of antitumor associated syndrome and its severity, positive control in this experiment used the most advanced antitumor antibodies in the world as a control. […]-VEGF is a tumor model with rapid tumor growth and obvious symptom of tumor associated syndrome. We” for “We”, “[…]-VEGF” for “T241-VEGF”, “[…]-VEGF,” for “T241-VEGF,”, “[…])” for “C1386-10G)”, “Simcere” left out, “body. In order to further verify the antitumor effect of each dose of curcumin and its effect on liver and spleen, we handled and dissected the animals in each group the day after administration, got tumors, livers, spleens and kidneys, then weighed up all the tissues and stored them respectively.” for “body.”

A short description of data set [3]: Body weight changes of T241-VEGF tumor-bearing mice after treatment (toxicity). As to conditions: low, medium and high dose of curcumin (2.5, 5, 10 mM, 0.1 ml/each, 14 days); consistent with normally fed animals. An excerpt:
At present, conventional antitumor drugs are accompanied with toxic side effects while taking effect. In this experiment, we evaluated the antitumor effect of curcumin, and examined the toxicity of the drug by observing changes in animals' body weights after treatment. Given that the chemotherapy drug treatment and course of chemotherapy are closely related to the incident rates of antitumor associated syndrome and its severity, positive control in this experiment used the most advanced antitumor antibodies in the world as a control. T241-VEGF is a tumor model with rapid tumor growth and obvious symptom of tumor associated syndrome.
We feed C57BL/6 female mice (SPF grade, 6-8 weeks old, manufactured by Shanghai Silaike Experimental Animal Co., Ltd.) for 2-3 days. The day before subcutaneous inoculation, body hair in back and neck was shaved with a shaving device for the preparation of subcutaneous inoculation of tumor cells. The tumor cells T241-VEGF were collected and washed twice with PBS. After resuspended with PBS and counted, the cells were diluted to 1×10^7 cells/ml with PBS and placed on ice ready for inoculation. Mice were anesthetized with 7% chloral hydrate, 0.1 ml/each, intraperitoneal injection. […]

The mark [4] stands for this setting: curcumin low, medium and high dose, positive control 2 mg/ml.

Molecules are shown by their SMILES.

Consider `COc1cc(/C=C/C(=O)CC(=O)/C=C/c2ccc(O)c(OC)c2)ccc1O` [curcumin], for which the “platelet (PLT) compared with normal mice” value in data set [1] (curcumin at a dose of 10 mM) was “no statistical differences”. Further, in data set [1] (curcumin low, medium and high dose (2.5, 5, 10 mM), positive control 2 mg/ml, FIG. 3), the “anemia symptoms of tumor-bearing mice compared with control group” value was “improved remarkably”. The “hematocrit (HCT) compared with normal mice” value in data set [1] (setting [4]) was “no statistical differences”. Moreover, in data set [1] (setting [4]), the “hemoglobin (HGB) compared with normal mice” value is “no statistical differences”. Further, in data set [1] (setting [4]), the “red blood cell (RBC) compared with normal mice” value is “no statistical differences”. Also, the “liver enlargement (liver coefficient)” value in data set [2] (5 mM curcumin) and in data set [2] (10 mM curcumin) was “significantly improve the liver enlargement” in each case. Moreover, the “spleen enlargement (spleen coefficient)” value in data set [2] (10 mM curcumin) is “significantly improve the spleen enlargement”. For the same molecule, the “final tumor volume compared with the control group” value in the data set on T241-VEGF tumors (2.5 mM curcumin) is on record as “inhibited to a certain extent”; in the data set on T241-VEGF tumors (5 mM curcumin, p<0.01 or p<0.001) it was “significantly different”; in the data set with T241-VEGF tumors (10 mM curcumin, p<0.01 or p<0.001) it was “significantly different”. For the same molecule, the “tumor weight compared with the control group” value with T241-VEGF tumors (5 mM curcumin) and with T241-VEGF tumors (10 mM curcumin) was “significantly different” in each case. Moreover, the “growth of T241-VEGF tumors” value with T241-VEGF tumors (low, medium and high dose of curcumin (2.5, 5, 10 mM, 0.1 ml/each, 14 days), FIG. 1-A) was “can inhibit the growth”. Further, the body weight result in data set [3] is reported as “not reduced”.
